Experimental data: patent publication US7425557B2, “Inhibitors of glycogen synthase kinase 3” (Novartis Vaccines and Diagnostics, Inc., priority 1998, dated 2008)

target: human GSK3β (Homo sapiens, UniProt P49841); experiment: Screening for GSK3 inhibitory activity using a cell-free assay; format: biochemical; details: read-out: IC50 with respect to GSK3
Outline: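 Radiometric cell-free assay with recombinant human GSK3β phosphorylating a biotinylated peptide substrate for 3 h. Reactions were stopped with 50 μM ATP/20 mM EDTA and captured on streptavidin plates. Incorporated radiolabel was counted by scintillation and plotted against compound concentration.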

Chain of human GSK3β (P49841 whole entry): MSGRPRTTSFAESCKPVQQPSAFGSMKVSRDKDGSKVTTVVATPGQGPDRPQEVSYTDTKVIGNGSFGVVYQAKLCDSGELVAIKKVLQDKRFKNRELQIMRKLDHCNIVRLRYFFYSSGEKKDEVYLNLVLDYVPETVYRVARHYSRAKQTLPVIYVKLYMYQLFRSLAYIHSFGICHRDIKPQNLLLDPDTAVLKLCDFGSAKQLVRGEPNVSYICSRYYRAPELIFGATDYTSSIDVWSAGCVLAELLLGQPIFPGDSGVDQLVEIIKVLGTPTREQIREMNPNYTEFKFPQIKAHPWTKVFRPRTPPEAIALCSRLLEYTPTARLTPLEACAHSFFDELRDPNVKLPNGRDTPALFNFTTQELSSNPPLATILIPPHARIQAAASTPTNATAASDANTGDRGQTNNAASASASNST

`N#Cc1ccc(-c2nc(NCCNc3ccc([N+](=O)[O-])cn3)ncc2C(=O)NCc2ccccc2)cc1` [[4-(4-cyanophenyl)-2-({2-[(5-nitro(2-pyridyl))amino]ethyl}amino)pyrimidin-5-yl]-N-benzylcarboxamide] and `CCOC(=O)c1cnc(NCCNc2ccc([N+](=O)[O-])cn2)nc1-c1ccc(-c2ccccc2)cc1` [ethyl 2-({2-[(5-nitro(2-pyridyl))amino]ethyl}amino)-4-(4-phenylphenyl)pyrimidine-5-carboxylate] cannot be ordered by IC50: ≤ 1 µM for the first, ≤ 10 µM for the second.

`Cc1cn(-c2ccccc2)nc1-c1ccnc(NCCNc2ccccn2)n1` [[4-(4-methyl-1-phenylpyrazol-3-yl)pyrimidin-2-yl][2-(2-pyridyl-amino)ethyl]amine] and `O=S(=O)(NCc1ccccc1)c1ccc(-c2ccnc(NCCNc3ccccn3)n2)cc1` [benzyl{[4-(2-{[2-(2-pyridylamino)ethyl]-amino}pyrimidin-4-yl)phenyl]sulfonyl}amine] cannot be ordered by IC50: ≤ 10 µM for the first, ≤ 10 µM for the second.

`O=[N+]([O-])c1ccc(-c2ccnc(NCCNc3ccccn3)n2)cc1` [[4-(4-nitrophenyl)pyrimidin-2-yl][2-(2-pyridylamino)ethyl]amine] and `O=[N+]([O-])c1ccc(NCCNc2ncc(-c3ccc(F)cc3)cn2)nc1` [[5-(4-fluorophenyl)pyrimidin-2-yl]{2-[(5-nitro(2-pyridyl))amino]ethyl}amine] cannot be ordered by IC50: ≤ 10 µM for the first, ≤ 10 µM for the second.

`c1ccc(Cc2cnc(NCCNc3ccccn3)nc2-c2ccccc2)cc1` [[4-phenyl-5-benzyl-pyrimidin-2-yl][2-(2-pyridylamino)ethyl]amine] and `O=[N+]([O-])c1ccc(NCCNc2nccc(NCc3cccc(Cl)c3)n2)nc1` [[(3-chlorophenyl)methyl][2-({2-[(5-nitro(2-pyridyl))-amino]ethyl}amino)pyrimidin-4-yl]amine] cannot be ordered by IC50: ≤ 10 µM for the first, ≤ 10 µM for the second.

`C/C(=N\c1cnc(NCCNc2ccc([N+](=O)[O-])c(N)n2)nc1-c1ccc(Cl)cc1Cl)N1CCOCC1` [[5-((1E)-1-aza-2-morpholin-4-ylprop-1-enyl)-4-(2,4-dichlorophenyl)pyrimidin-2-yl]{2-[(6-amino-5-nitro(2-pyridyl))amino]ethyl}amine] and `Nc1cnc(NCCNc2ccc([N+](=O)[O-])c(N)n2)nc1-c1ccc(Cl)cc1Cl` [[5-amino-4-(2,4-dichlorophenyl)pyrimidin-2-yl]{2-[(6-amino-5-nitro(2-pyridyl))amino]ethyl}amine] cannot be ordered by IC50: ≤ 1 µM for the first, ≤ 1 µM for the second.

`O=[N+]([O-])c1ccc(NCCNc2ncc(-n3cnc4ccccc43)c(-c3ccc(Cl)cc3Cl)n2)nc1` [[5-benzimidazolyl-4-(2,4-dichlorophenyl)pyrimidin-2-yl]{2-[(5-nitro-(2-pyridyl))amino]ethyl}amine] and `O=[N+]([O-])c1ccc(NCCNc2ncc(-n3nnc4ccccc43)c(-c3ccc(Cl)cc3Cl)n2)nc1` [[5-benzotriazolyl-4-(2,4-dichlorophenyl)pyrimidin-2-yl]{2-[(5-nitro(2-pyridyl))amino]ethyl}amine] cannot be ordered by IC50: ≤ 1 µM for the first, ≤ 1 µM for the second.

`O=[N+]([O-])c1ccc(NCCNc2ccc(-n3ccnc3)c(-c3ccc(Cl)cc3Cl)n2)nc1` [[6-(2,4-dichlorophenyl)-5-imidazolyl(2-pyridyl)]{2-[(5-nitro(2-pyridyl))amino]ethyl}amine] and `O=[N+]([O-])c1ccc(NCCNc2nccc(NCc3ccc(Cl)cc3)n2)nc1` [[(4-chlorophenyl)methyl][2-({2-[(5-nitro(2-pyridyl))amino]ethyl}amino)pyrimidin-4-yl]amine] cannot be ordered by IC50: ≤ 1 µM for the first, ≤ 10 µM for the second.

`O=[N+]([O-])c1ccc(NCCNc2nccc(NCc3cc(Cl)cc(Cl)c3)n2)nc1` [[(3,5-dichlorophenyl)methyl][2-({2-[(5-nitro(2-pyridyl))amino]ethyl}amino)pyrimidin-4-yl]amine] and `Cc1cccc(CNc2ccnc(NCCNc3ccc([N+](=O)[O-])cn3)n2)c1` [[(3-methylphenyl)methyl][2-({2-[(5-nitro-(2-pyridyl))amino]ethyl}amino)pyrimidin-4-yl]amine] cannot be ordered by IC50: ≤ 10 µM for the first, ≤ 10 µM for the second.

`O=[N+]([O-])c1ccc(NCCNc2nccc(-c3ccc(S(=O)(=O)NCc4cccc(Br)c4)cc3)n2)nc1` [[(3-bromophenyl)methyl]({4-[2-({2-[(5-nitro(2-pyridyl))amino]ethyl}-amino)pyrimidin-4-yl]phenyl}sulfonyl)amine] and `CCOC(=O)c1cnc(NCCNc2ccc([N+](=O)[O-])cn2)nc1-c1ccc(S(N)(=O)=O)cc1` [ethyl 2-({2-[(5-nitro(2-pyridyl))amino]ethyl}amino)-4-(4-sulfamoylphenyl)pyrimidine-5-carboxylate] cannot be ordered by IC50: ≤ 10 µM for the first, ≤ 10 µM for the second.

`CCCCOC(=O)c1cnc(NCCNc2ccc([N+](=O)[O-])cn2)nc1-c1ccc(C#N)cc1` [butyl 4-(4-cyanophenyl)-2-({2-[(5-nitro(2-pyridyl))amino]ethyl}amino)pyrimidine-5-carboxylate] and `CCOC(=O)c1cnc(NCCNc2ccc(N)cn2)nc1-c1ccc(C#N)cc1` [ethyl 2-({2-[(5-amino(2-pyridyl))amino]ethyl}amino)-4-(4-cyanophenyl)pyrimidine-5-carboxylate] cannot be ordered by IC50: ≤ 1 µM for the first, ≤ 10 µM for the second.

`CCOC(=O)c1cnc(NCCNc2ncc(C#N)c(N)n2)nc1-c1ccc(C#N)cc1` [ethyl 2-({2-[(4-amino-5-cyanopyrimidin-2-yl)amino]ethyl}amino)-4-(4-cyanophenyl)pyrimidine-5-carboxylate] and `CCOC(=O)c1cnc(NCCNc2ncc([N+](=O)[O-])c(N)n2)nc1-c1ccc(C#N)cc1` [ethyl 2-({2-[(4-amino-5-nitropyrimidin-2-yl)amino]ethyl}amino)-4-(4-cyanophenyl)pyrimidine-5-carboxylate] cannot be ordered by IC50: ≤ 1 µM for the first, ≤ 1 µM for the second.

`CCOC(=O)c1cnc(NCCNc2ccc(C#N)cn2)nc1-c1ccc(C#N)cc1` [ethyl 2-({2-[(5-cyano(2-pyridyl))amino]ethyl}amino)-4-(4-cyanophenyl)pyrimidine-5-carboxylate] and `CCOC(=O)c1cnc(NCCNc2ccc([N+](=O)[O-])cn2)nc1-c1ccc(C(F)(F)F)cc1` [ethyl 2-({2-[(5-nitro(2-pyridyl))amino]ethyl}amino)-4-[4-(trifluoromethyl)phenyl]pyrimidine-5-carboxylate] cannot be ordered by IC50: ≤ 1 µM for the first, ≤ 1 µM for the second.

`CCOC(=O)c1cnc(NCCNc2ccc([N+](=O)[O-])cn2)nc1-c1cccc([N+](=O)[O-])c1` [ethyl 2-({2-[(5-nitro(2-pyridyl))amino]ethyl}amino)-4-(3-nitrophenyl)pyrimidine-5-carboxylate] and `CCOC(=O)c1cnc(NCCNc2ccc([N+](=O)[O-])cn2)nc1-c1cccc(C(F)(F)F)c1` [ethyl 2-({2-[(5-nitro(2-pyridyl))amino]ethyl}amino)-4-[3-(trifluoromethyl)phenyl]pyrimidine-5-carboxylate] cannot be ordered by IC50: ≤ 10 µM for the first, ≤ 10 µM for the second.

`CCOC(=O)c1cnc(NCCNc2ccc([N+](=O)[O-])cn2)nc1-c1cnc2ccccc2c1` [ethyl 2-({2-[(5-nitro(2-pyridyl))amino]ethyl}amino)-4-(3-quinolyl)pyrimidine-5-carboxylate] and `CCOC(=O)c1cnc(NCCNc2ccc([N+](=O)[O-])cn2)nc1-c1ccncc1` [ethyl 2-({2-[(5-nitro(2-pyridyl))amino]ethyl}amino)-4-(4-pyridyl)pyrimidine-5-carboxylate] cannot be ordered by IC50: ≤ 10 µM for the first, ≤ 1 µM for the second.

`CCOC(=O)c1cnc(NCCNc2ccc([N+](=O)[O-])cn2)nc1-c1ccc(-n2cnnc2)cc1` [ethyl 2-({2-[(5-nitro(2-pyridyl))amino]ethyl}amino)-4-(4-(1,2,4-triazol-4-yl)phenyl)pyrimidine-5-carboxylate] was tested, and the IC50 was ≤ 1 µM.
